Test results as given in patent US11382328B2, “Rapid drug discovery methods for pathogen inactivation” (priority 2019, dated 2022).

Test system: E. coli strain W3110
Experiment: Synergy assays: Biolog chemical sensitivity panels with Group IB metal, coefficient of drug interaction (CDI) from relative growth
Type: cell-based
Details: for CDI (coefficient of drug interaction), copper mixed with biocide: Copper (mM) section, 2nd of 3 copper concentrations (value not shown); for CDI (coefficient of drug interaction), gold + biocide: Gold (μM)
[1] = Gold 5 μM, biocide concentration 4 of 4, E. coli
[2] = Gold 25 μM, biocide concentration 4 of 4, E. coli
[3] = Gold 50 μM, biocide concentration 4 of 4, E. coli
[4] = Silver 0.5 μM, 3rd of four biocide concentrations, E. coli
[5] = Silver 0.5 μM, 4th of four biocide concentrations, E. coli
[6] = Silver 1.0 μM, 3rd of four biocide concentrations, E. coli
[7] = Silver 1.0 μM, 4th of four biocide concentrations, E. coli
[8] = Silver 5.0 μM, 3rd of four biocide concentrations, E. coli
[9] = Silver 5.0 μM, 4th of four biocide concentrations, E. coli
[10] = 4th of four biocide concentrations
[11] = Gold section of Table 5, first of three gold concentrations (μM, value not given), biocide concentration 3 of 4
[12] = Gold section of Table 5, first of three gold concentrations (μM, value not given), biocide concentration 4 of 4
[13] = Gold section of Table 5, second of three gold concentrations (μM, value not given), biocide concentration 3 of 4
[14] = Gold section of Table 5, second of three gold concentrations (μM, value not given), biocide concentration 4 of 4
[15] = Gold section of Table 5, third of three gold concentrations (μM, value not given), biocide concentration 3 of 4
[16] = Gold section of Table 5, third of three gold concentrations (μM, value not given), biocide concentration 4 of 4
[17] = Copper (mM), 1st of 3 copper concentrations (head line not shown), biocide concentration 4 of 4, E. coli
[18] = Copper (mM), 2nd of 3 copper concentrations (head line not shown), biocide concentration 4 of 4, E. coli
[19] = Copper (mM), 3rd of 3 copper concentrations (head line not shown), biocide concentration 4 of 4, E. coli
[20] = Silver 0.5 μM, biocide concentration 4 of 4
[21] = Silver 1.0 μM, biocide concentration 4 of 4
[22] = Silver 5.0 μM, biocide concentration 4 of 4
[23] = Copper (mM), 1st of 3 copper concentrations (head line not shown), biocide concentration 3 of 4, E. coli
[24] = Copper (mM), 2nd of 3 copper concentrations (head line not shown), biocide concentration 3 of 4, E. coli
[25] = Copper (mM), 3rd of 3 copper concentrations (head line not shown), biocide concentration 3 of 4, E. coli
[26] = first of 3 gold concentrations, biocide concentration 4 of 4
[27] = second of 3 gold concentrations, biocide concentration 4 of 4
[28] = third of 3 gold concentrations, biocide concentration 4 of 4
[29] = Silver 1.0 μM, biocide concentration 3 of 4
[30] = Silver 5.0 μM, biocide concentration 3 of 4

Compound: c1cnc2c(c1)ccc1cccnc12 [1,10-phenanthroline]
- CDI (Copper 0.1 mM, biocide concentration 3 of 4): Tox
- CDI (Copper 0.1 mM, biocide concentration 4 of 4): Tox
- CDI (Copper 0.5 mM, biocide concentration 3 of 4): Tox
- CDI (Copper 0.5 mM, biocide concentration 4 of 4): Tox
- CDI (Copper 1.0 mM, biocide concentration 3 of 4): Tox
- CDI (Copper 1.0 mM, biocide concentration 4 of 4): Tox
- CDI (coefficient of drug interaction) [1]: Tox
- CDI (coefficient of drug interaction) [2]: Tox
- CDI (coefficient of drug interaction) [3]: Tox
- CDI (coefficient of drug interaction), silver + biocide [4]: Tox
- CDI (coefficient of drug interaction), silver + biocide [5]: Tox
- CDI (coefficient of drug interaction), silver + biocide [6]: Tox
- CDI (coefficient of drug interaction), silver + biocide [7]: Tox
- CDI (coefficient of drug interaction), silver + biocide [8]: Tox
- CDI (coefficient of drug interaction), silver + biocide [9]: Tox

Compound: Nc1c2ccccc2nc2ccccc12 [9-aminoacridine]
- CDI (coefficient of drug interaction), copper mixed with biocide [10]: Tox
- CDI (coefficient of drug interaction), silver + biocide [5]: Tox
- CDI (coefficient of drug interaction), silver + biocide [7]: Tox
- CDI (coefficient of drug interaction), silver + biocide [9]: Tox

Compound: O=C1CN(/N=C/c2ccc([N+](=O)[O-])o2)C(=O)N1 [nitrofurantoin]
- CDI (coefficient of drug interaction) [3]: Tox

Compound: O=C(O)CI [lodoacetate]
- CDI (coefficient of drug interaction) (Gold section of Table 5, first of three gold concentrations (μM, value not given), biocide concentration 1 of 4): 0.77
- CDI (coefficient of drug interaction) (Gold section of Table 5, first of three gold concentrations (μM, value not given), biocide concentration 2 of 4): Tox
- CDI (coefficient of drug interaction) [11]: Tox
- CDI (coefficient of drug interaction) [12]: Tox
- CDI (coefficient of drug interaction) (Gold section of Table 5, second of three gold concentrations (μM, value not given), biocide concentration 1 of 4): 1.00
- CDI (coefficient of drug interaction) (Gold section of Table 5, second of three gold concentrations (μM, value not given), biocide concentration 2 of 4): Tox
- CDI (coefficient of drug interaction) [13]: Tox
- CDI (coefficient of drug interaction) [14]: Tox
- CDI (coefficient of drug interaction) (Gold section of Table 5, third of three gold concentrations (μM, value not given), biocide concentration 1 of 4): 0.88
- CDI (coefficient of drug interaction) (Gold section of Table 5, third of three gold concentrations (μM, value not given), biocide concentration 2 of 4): Tox
- CDI (coefficient of drug interaction) [15]: Tox
- CDI (coefficient of drug interaction) [16]: Tox

Compound: Cc1cc(O)cc(C)c1Cl [chloroxylenol]
- CDI (coefficient of drug interaction), copper mixed with biocide (2nd of four biocide concentrations): Tox
- CDI (coefficient of drug interaction), copper mixed with biocide (3rd of four biocide concentrations): Tox
- CDI (coefficient of drug interaction), copper mixed with biocide [10]: Tox
- CDI (coefficient of drug interaction) [11]: Tox
- CDI (coefficient of drug interaction) [12]: Tox
- CDI (coefficient of drug interaction) [13]: Tox
- CDI (coefficient of drug interaction) [14]: Tox
- CDI (coefficient of drug interaction) [15]: Tox
- CDI (coefficient of drug interaction) [16]: Tox
- CDI (coefficient of drug interaction), silver + biocide [4]: Tox
- CDI (coefficient of drug interaction), silver + biocide [5]: Tox
- CDI (coefficient of drug interaction), silver + biocide (Silver 1.0 μM, 2nd of four biocide concentrations, E. coli): Tox
- CDI (coefficient of drug interaction), silver + biocide [6]: Tox
- CDI (coefficient of drug interaction), silver + biocide [7]: Tox
- CDI (coefficient of drug interaction), silver + biocide (Silver 5.0 μM, 2nd of four biocide concentrations, E. coli): Tox
- CDI (coefficient of drug interaction), silver + biocide [8]: Tox
- CDI (coefficient of drug interaction), silver + biocide [9]: Tox

Compound: CCN(CC)C(=S)SSC(=S)N(CC)CC [disulfiram]
- CDI (coefficient of drug interaction), copper mixed with biocide [10]: Tox
- CDI (coefficient of drug interaction) (Gold 5 μM, biocide concentration 3 of 4, E. coli): Tox
- CDI (coefficient of drug interaction) [1]: Tox
- CDI (coefficient of drug interaction) (Gold 25 μM, biocide concentration 3 of 4, E. coli): Tox
- CDI (coefficient of drug interaction) [2]: Tox
- CDI (coefficient of drug interaction), silver + biocide [5]: Tox
- CDI (coefficient of drug interaction), silver + biocide [7]: Tox
- CDI (coefficient of drug interaction), silver + biocide [9]: Tox
- CDI (coefficient of drug interaction) ([…], biocide concentration 3 of 4, E. coli): Tox
- CDI (coefficient of drug interaction) ([…], biocide concentration 4 of 4, E. coli): Tox

Compound: N#CC(C#N)=NNc1cccc(Cl)c1 [CCCP, Carbonyl cyanide m-chlorophenylhydrazone]
- CDI (coefficient of drug interaction) [17]: Tox
- CDI (coefficient of drug interaction) [18]: Tox
- CDI (coefficient of drug interaction) [19]: Tox
- CDI [20]: Tox
- CDI [21]: Tox
- CDI [22]: Tox

Compound: Cc1onc(-c2ccccc2)c1C(=O)N[C@@H]1C(=O)N2[C@@H]1SC(C)(C)[C@@H]2C(=O)O [oxacillin]
- CDI (coefficient of drug interaction) [23]: Tox
- CDI (coefficient of drug interaction) [17]: Tox
- CDI (coefficient of drug interaction) [24]: Tox
- CDI (coefficient of drug interaction) [18]: Tox
- CDI (coefficient of drug interaction) [25]: Tox
- CDI (coefficient of drug interaction) [19]: Tox
- CDI (coefficient of drug interaction), gold + biocide [26]: Tox
- CDI (coefficient of drug interaction), gold + biocide [27]: Tox
- CDI (coefficient of drug interaction), gold + biocide [28]: Tox
- CDI (Silver 0.5 μM, biocide concentration 3 of 4): Tox
- CDI [20]: Tox
- CDI [29]: Tox
- CDI [21]: Tox
- CDI [30]: Tox
- CDI [22]: Tox

Compound: O=C1OC(CN2CCOCC2)CN1/N=C/c1ccc([N+](=O)[O-])o1 (centres unmarked) [furaltadone]
- CDI (coefficient of drug interaction) [3]: Tox

Compound: CC1(C)S[C@@H]2[C@H](NC(=O)[C@H](NC(=O)N3CCNC3=O)c3ccccc3)C(=O)N2[C@H]1C(=O)O [aziocillin]
- CDI (coefficient of drug interaction) (Copper (mM), 1st of 3 copper concentrations (head line not shown), biocide concentration 1 of 4, E. coli): 0.97
- CDI (coefficient of drug interaction) (Copper (mM), 1st of 3 copper concentrations (head line not shown), biocide concentration 2 of 4, E. coli): 1.05
- CDI (coefficient of drug interaction) [23]: 1.08
- CDI (coefficient of drug interaction) [17]: Tox
- CDI (coefficient of drug interaction) (Copper (mM), 2nd of 3 copper concentrations (head line not shown), biocide concentration 1 of 4, E. coli): 0.94
- CDI (coefficient of drug interaction) (Copper (mM), 2nd of 3 copper concentrations (head line not shown), biocide concentration 2 of 4, E. coli): 0.90
- CDI (coefficient of drug interaction) [24]: 0.97
- CDI (coefficient of drug interaction) [18]: Tox
- CDI (coefficient of drug interaction) (Copper (mM), 3rd of 3 copper concentrations (head line not shown), biocide concentration 1 of 4, E. coli): 0.78
- CDI (coefficient of drug interaction) (Copper (mM), 3rd of 3 copper concentrations (head line not shown), biocide concentration 2 of 4, E. coli): 0.70
- CDI (coefficient of drug interaction) [25]: 0.61
- CDI (coefficient of drug interaction) [19]: Tox
- CDI (coefficient of drug interaction), gold + biocide (first of 3 gold concentrations, biocide concentration 1 of 4): 0.92
- CDI (coefficient of drug interaction), gold + biocide (first of 3 gold concentrations, biocide concentration 2 of 4): 1.01
- CDI (coefficient of drug interaction), gold + biocide (first of 3 gold concentrations, biocide concentration 3 of 4): 0.94
- CDI (coefficient of drug interaction), gold + biocide [26]: 0.64
- CDI (coefficient of drug interaction), gold + biocide (second of 3 gold concentrations, biocide concentration 1 of 4): 1.05
- CDI (coefficient of drug interaction), gold + biocide (second of 3 gold concentrations, biocide concentration 2 of 4): 1.09
- CDI (coefficient of drug interaction), gold + biocide (second of 3 gold concentrations, biocide concentration 3 of 4): 0.89
- CDI (coefficient of drug interaction), gold + biocide [27]: 0.64
- CDI (coefficient of drug interaction), gold + biocide (third of 3 gold concentrations, biocide concentration 1 of 4): 0.94
- CDI (coefficient of drug interaction), gold + biocide (third of 3 gold concentrations, biocide concentration 2 of 4): 0.93
- CDI (coefficient of drug interaction), gold + biocide (third of 3 gold concentrations, biocide concentration 3 of 4): 0.93
- CDI (coefficient of drug interaction), gold + biocide [28]: 0.47
- CDI (Silver 0.5 μM, biocide concentration 1 of 4): 0.90
- CDI (Silver 0.5 μM, biocide concentration 2 of 4): 1.07
- CDI [20]: Tox
- CDI (Silver 1.0 μM, biocide concentration 1 of 4): 0.97
- CDI (Silver 1.0 μM, biocide concentration 2 of 4): 0.90
- CDI [29]: 1.14
- CDI [21]: Tox
- CDI (Silver 5.0 μM, biocide concentration 1 of 4): 1.03
- CDI (Silver 5.0 μM, biocide concentration 2 of 4): 1.08
- CDI [30]: 0.70
- CDI [22]: Tox
